Assay results as given in PubChem BioAssay AID1963854 (Molecular Pharmacology Branch, DTP, NCI, 2024).

System: 186277-243-T-J2-PDC complex spheroid viability
Assay: Anticancer human tumor 186277-243-T-J2-PDC patient-derived colon adenocarcinoma cell line growth inhibition [POLQ]
Conditions: for IC50: curve of first compound; for viability, T/C: stronger effect = lower value
Method in brief: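 Patient-derived tumour cells were co-cultured with HUVEC and mesenchymal stem cells as multicellular spheroids at 37 °C. They were treated with POLQ inhibitors (novobiocin, ART-558, RP6685) alone or combined with other agents. Top concentrations were at or near clinical Cmax (otherwise 10 microM; SN-38 at 1 microM), decreasing in half-log steps.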

[1] = second compound 0.0316 µM, first compound 0.0316 µM
[2] = second compound 0.0316 µM, first compound 0.1 µM
[3] = second compound 0.1 µM, first compound 0.0316 µM
[4] = second compound 0.1 µM, first compound 0.1 µM
[5] = second compound 0.316 µM, first compound 0.0316 µM
[6] = second compound 0.316 µM, first compound 0.1 µM
[7] = second compound 1 µM, first compound 0.0316 µM
[8] = second compound 1 µM, first compound 0.1 µM
[9] = second compound 3.16 µM, first compound 0.0316 µM
[10] = second compound 3.16 µM, first compound 0.1 µM
[11] = second compound 10 µM, first compound 0.0316 µM
[12] = second compound 10 µM, first compound 0.1 µM
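Also: spheroids exposed to compounds for seven days.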
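For viability, T/C in this document: 100% = DMSO vehicle control viability.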

`C=CC(=O)N1CCN(c2nc(=O)n(-c3c(C)ccnc3C(C)C)c3nc(-c4c(O)cccc4F)c(F)cc23)C(C)C1` (centres undefined) + COC1C(OC(N)=O)C(O)C(Oc2ccc3c(O)c(NC(=O)c4ccc(O)c(CC=C(C)C)c4)c(=O)oc3c2C)OC1(C)C was tested, and the IC50 (second compound 0.0316 µM) was greater than 10 µM, the IC50 (second compound 0.1 µM) was greater than 10 µM and the IC50 (second compound 0.316 µM) was greater than 10 µM. For the same compound, the IC50 (second compound 1 µM) was greater than 10 µM, the IC50 (second compound 3.16 µM) was greater than 10 µM and the IC50 (second compound 10 µM) was greater than 10 µM. For the same compound, the viability, T/C [1] was 94%, the viability, T/C [2] was 88.7% and the viability, T/C (second compound 0.0316 µM, first compound 0.316 µM) was 111%. For the same compound, the viability, T/C (second compound 0.0316 µM, first compound 1 µM) was 88.2%, the viability, T/C (second compound 0.0316 µM, first compound 3.16 µM) was 102% and the viability, T/C (second compound 0.0316 µM, first compound 10 µM) was 85.9%. It also gave a viability, T/C [3] of 90.2%, a viability, T/C [4] of 91.8% and a viability, T/C (second compound 0.1 µM, first compound 0.316 µM) of 98.3%. It also gave a viability, T/C (second compound 0.1 µM, first compound 1 µM) of 90.2%, a viability, T/C (second compound 0.1 µM, first compound 3.16 µM) of 87% and a viability, T/C (second compound 0.1 µM, first compound 10 µM) of 97%. For the same compound, the viability, T/C [5] was 98%, the viability, T/C [6] was 102% and the viability, T/C (second compound 0.316 µM, first compound 0.316 µM) was 91.5%. It also gave a viability, T/C (second compound 0.316 µM, first compound 1 µM) of 104%, a viability, T/C (second compound 0.316 µM, first compound 3.16 µM) of 110% and a viability, T/C (second compound 0.316 µM, first compound 10 µM) of 98.1%. It also gave a viability, T/C [7] of 97.3%, a viability, T/C [8] of 93.9% and a viability, T/C (second compound 1 µM, first compound 0.316 µM) of 101%. It also gave a viability, T/C (second compound 1 µM, first compound 1 µM) of 90.7%, a viability, T/C (second compound 1 µM, first compound 3.16 µM) of 96.6% and a viability, T/C (second compound 1 µM, first compound 10 µM) of 97.7%. For the same compound, the viability, T/C [9] was 93.5%, the viability, T/C [10] was 94.5% and the viability, T/C (second compound 3.16 µM, first compound 0.316 µM) was 99.3%. For the same compound, the viability, T/C (second compound 3.16 µM, first compound 1 µM) was 101%, the viability, T/C (second compound 3.16 µM, first compound 3.16 µM) was 87.5% and the viability, T/C (second compound 3.16 µM, first compound 10 µM) was 87.3%. For the same compound, the viability, T/C [11] was 92.9%, the viability, T/C [12] was 104% and the viability, T/C (second compound 10 µM, first compound 0.316 µM) was 92.3%. It also gave a viability, T/C (second compound 10 µM, first compound 1 µM) of 84.5%, a viability, T/C (second compound 10 µM, first compound 3.16 µM) of 116% and a viability, T/C (second compound 10 µM, first compound 10 µM) of 83.3%.

In the case of `Cn1ncnc1[C@H]1c2n[nH]c(=O)c3cc(F)cc(c23)N[C@@H]1c1ccc(F)cc1` + Nc1ccc(C#CCN(C(=O)Cc2ncc(C(F)(F)F)cc2C(F)(F)F)c2ccc(F)cc2)nn1, the IC50 (second compound 0.0316 µM) is reported as greater than 0.1 µM, the IC50 (second compound 0.1 µM) is reported as greater than 0.1 µM and the IC50 (second compound 0.316 µM) is reported as greater than 0.1 µM. For the same compound, the IC50 (second compound 1 µM) was greater than 0.1 µM, the IC50 (second compound 3.16 µM) was greater than 0.1 µM and the IC50 (second compound 10 µM) was greater than 0.1 µM. For the same compound, the viability, T/C (second compound 0.0316 µM, first compound 0.000316 µM) was 101%, the viability, T/C (second compound 0.0316 µM, first compound 0.001 µM) was 90.9% and the viability, T/C (second compound 0.0316 µM, first compound 0.00316 µM) was 110%. It also gave a viability, T/C (second compound 0.0316 µM, first compound 0.01 µM) of 113%, a viability, T/C [1] of 130% and a viability, T/C [2] of 124%. It also gave a viability, T/C (second compound 0.1 µM, first compound 0.000316 µM) of 103%, a viability, T/C (second compound 0.1 µM, first compound 0.001 µM) of 101% and a viability, T/C (second compound 0.1 µM, first compound 0.00316 µM) of 111%. For the same compound, the viability, T/C (second compound 0.1 µM, first compound 0.01 µM) was 105%, the viability, T/C [3] was 125% and the viability, T/C [4] was 142%. The viability, T/C (second compound 0.316 µM, first compound 0.000316 µM) was 87.5%, the viability, T/C (second compound 0.316 µM, first compound 0.001 µM) was 110% and the viability, T/C (second compound 0.316 µM, first compound 0.00316 µM) was 102%. It also gave a viability, T/C (second compound 0.316 µM, first compound 0.01 µM) of 111%, a viability, T/C [5] of 119% and a viability, T/C [6] of 143%. The viability, T/C (second compound 1 µM, first compound 0.000316 µM) was 91.3%, the viability, T/C (second compound 1 µM, first compound 0.001 µM) was 116% and the viability, T/C (second compound 1 µM, first compound 0.00316 µM) was 103%. The viability, T/C (second compound 1 µM, first compound 0.01 µM) was 106%, the viability, T/C [7] was 120% and the viability, T/C [8] was 126%. For the same compound, the viability, T/C (second compound 3.16 µM, first compound 0.000316 µM) was 92.3%, the viability, T/C (second compound 3.16 µM, first compound 0.001 µM) was 111% and the viability, T/C (second compound 3.16 µM, first compound 0.00316 µM) was 112%. The viability, T/C (second compound 3.16 µM, first compound 0.01 µM) was 105%, the viability, T/C [9] was 116% and the viability, T/C [10] was 140%. The viability, T/C (second compound 10 µM, first compound 0.000316 µM) was 93.4%, the viability, T/C (second compound 10 µM, first compound 0.001 µM) was 104% and the viability, T/C (second compound 10 µM, first compound 0.00316 µM) was 106%. For the same compound, the viability, T/C (second compound 10 µM, first compound 0.01 µM) was 103%, the viability, T/C [11] was 117% and the viability, T/C [12] was 121%.
